Values of other authors as cited in patent EP0268925B1, “Safened pesticidal resin compositions for controlling soil borne pests and process for the preparation thereof” (priority 1986, dated 1988).

Legend:
[1] = inhalation hazard
[2] = tested on: rats; conditions: technical material

CCOP(=S)(OCC)SCSC(C)(C)C [terbufos, O,O-diethyl S-[[(1,1-dimethylethyl)thio]methyl]phosphorodithioate]
inhalation LD50 [1]: 35 mg/kg body weight | acute oral LD50 value in rats [2]: 1.6 mg technical/kg

CCOP(=S)(OCC)SCSCC [phorate, O,O-diethyl-S-(ethylthiomethyl)phosphorodithioate]
inhalation LD50 [1]: 35 mg/kg body weight | acute oral LD50 value in rats [2]: 1.6-3.7 mg technical/kg
